Numbered stars: 1 amine (or outer) side, 2 acyl side, 3 side chain; on linkers, the order of the positions; unused ones are H or OH. Square brackets hold non-standard residues; d marks the D form. Peptide text beside a SMILES is read from it. * marks the point of attachment. 5FAM = O=C1OC2(c3ccc(O)cc3Oc3cc(O)ccc32)c2ccc(C(=O)*)cc21; NHCH2C6H4(4-CH2CONH2) = NC(=O)Cc1ccc(CN*)cc1; X1 = O=C(Cc1ccc(CN[*:1])cc1)[*:2]
How the values were obtained:
IL-6R = target: T1, IL-6R (Homo sapiens, UniProt P08887); experiment: MST binding affinity of resynthesized NNP hits to IL-6R; conditions: IL-6R; ester versus amide amino acid-PAM bond polymers, library NNP2
T1 construct: purchased Creative Biomart IL6R-584H
T1 sequence (P08887 20-355 limits assumed): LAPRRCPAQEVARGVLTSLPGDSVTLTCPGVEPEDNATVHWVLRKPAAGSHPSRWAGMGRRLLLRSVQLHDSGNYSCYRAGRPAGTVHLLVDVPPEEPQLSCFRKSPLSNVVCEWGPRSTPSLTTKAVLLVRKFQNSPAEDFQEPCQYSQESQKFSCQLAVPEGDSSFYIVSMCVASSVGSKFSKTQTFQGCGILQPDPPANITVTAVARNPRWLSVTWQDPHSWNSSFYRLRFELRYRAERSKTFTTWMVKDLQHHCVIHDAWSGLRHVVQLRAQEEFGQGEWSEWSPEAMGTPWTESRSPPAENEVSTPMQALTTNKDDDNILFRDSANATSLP
How it was run: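 Microscale thermophoresis at room temperature, triplicate, 15, 30 and 45 min incubations; targets labeled with RED-NHS 647 dye. Buffers (all 20 mM HEPES pH 7.4 unless noted): IL-6 150 mM KCl, 10 mM MgCl2, 0.1% Pluronic F-127; IL-6R 150 mM NaCl, 10 mM MgCl2, 0.05% Tween-20; TNFα 10 mM HEPES, 150 mM NaCl, 10 mM MgCl2, 0.05% Polysorbate-20; ASGPR adds 2 mM CaCl2, 0.05% Pluronic F-127, 1 mM DTT.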

proteinase K = proteinase K (Parengyodontium album, UniProt P06873); experiment: Proteinase K stability assay; format: in vitro ADME; conditions: 37 degrees C; aliquots at 0, 1.5 and 16 hours; LC-MS
proteinase K, sequence (P06873 106-384, species assumed): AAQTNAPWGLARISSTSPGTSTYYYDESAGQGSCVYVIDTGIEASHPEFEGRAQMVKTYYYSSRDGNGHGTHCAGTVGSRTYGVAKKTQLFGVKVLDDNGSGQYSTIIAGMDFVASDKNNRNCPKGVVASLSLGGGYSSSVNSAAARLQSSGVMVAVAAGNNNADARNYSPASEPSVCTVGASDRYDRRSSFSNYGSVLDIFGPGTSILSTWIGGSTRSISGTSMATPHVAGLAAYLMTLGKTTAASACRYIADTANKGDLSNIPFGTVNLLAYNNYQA
Experimental: For proteinase K stability, solutions of each tested compound (200 μM) in 10% DMSO and 20 mM Tris HCl at pH 8 were prepared. Proteinase K was added to a final concentration of […] and 100 μM of the tested compound in 5% DMSO and 10 mM Tris HCl at pH 8. The solutions were incubated at 37 degrees C. and aliquots after 0 hours, 1.5 hours and 16 hours were analyzed by LC-MS.

[1] = format: in vitro ADME; conditions: 17 h
Experimental: For human plasma stability, lyophilized human plasma was reconstituted in sterile water for injection, aliquoted into 200 uL aliquots and stored frozen at −80 degrees C. prior to the stability studies. For the stability studies three aliquots per NNP were thawed at room temperature. An additional set of three aliquots for a positive control peptide (Angiotensin I) were also thawed. The incubations for the plasma stability were initiated by mixing 2 uL of a 2 mM stock solution of NNP IL6R-87-8 or positive control in DMSO with the 200 uL thawed plasma aliquot. After briefly vortex-mixing, 50 uL zero-time-point samples were removed, mixed with 50 uL of water and 400 uL of acetonitrile and frozen on dry ice until all time point samples had been collected. The samples were incubated at 37 degrees C. with samples removed and water/acetonitrile added at 1 hour, 3 hours, and 17 hours. Proteins were precipitated by centrifuging the samples at 17,000 G, 4 degrees C. for 1 hour. The supernatants were removed and concentrated in a centrifugal vacuum concentrator (GeneVac Genie II) at 45 degrees C. until the volume had been reduced to around 60 uL. […]

[2] = test system: HEK293 cells (non-expressing); experiment: ASGPR uptake assay, flow cytometry, HEK293; format: cell-based, human; conditions: fluorescein-labeled compounds
Experimental: (§1) The HEK293T (human embryonic kidney cells) and human hepatoma HepG2 cells were grown according to the protocols provided by the American Type Culture Collection (ATCC). When cells reached cell were seeded at ˜1.5×10^5 cells/well in 24-well culture plate for the uptake assay. After at least 16 hours of culture to allow cell attach and equilibrate, the compound treatment was set up for the uptake assay.
The fluorescein-labeled NNPs or fluorescein-labeled N-acetylgalactosamine (GalNAc) recognizing ASGRPR were added to wells at indicated concentrations and incubated for 2 hours. Two plates were prepared for each treatment condition, one serving as 4 degrees C. no internalization control that was kept on ice during incubation, while the second plate was incubated at 37 degrees C. to allow for energy dependent internalization. Following the incubation period, all plates were placed on ice and washed three times with ice-cold PBS/3% BSA/2 mM EDTA and then lifted with trypsin. Cells were transferred to a 96-well round bottom plates in FACS buffer. Cells were then analyzed by flow cytometry using LSR-HJ with HTS sampler (BD Biosciences, San Jose, CA, USA). Data (mean fluorescence intensities) and further analyzed using Flowjo software (BD Biosciences, San Jose, CA, USA). The internalized fraction was expressed as the difference between the corresponding 4 degrees C. and 37 degrees C. […]

K-Ras = target: T2, K-Ras (Homo sapiens, UniProt P01116, G12V); experiment: MST binding affinity of resynthesized NNP hits to K-Ras; conditions: read-out: KD (nM) [95% conf. int]; MST; NNP1 library hit; target K-Ras; one-site binding model
T2 construct: purchased Cytoskeleton Inc. CS-RS04
How it was run: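 K-Ras G12V was GTP-loaded (EDTA exchange, 750 μM GTP, 2 h at 30° C, then MgCl2) and labeled with maleimide-647 dye. MST was run at room temperature in 20 mM HEPES pH 7.4, 150 mM NaCl, 10 mM MgCl2, 0.05% Tween-20, 1 mM DTT. Incubations lasted 15, 30 and 45 min; triplicate data fitted for affinity.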

[3] = test system: HepG2 cells (high ASGPR expressing); experiment: ASGPR uptake assay, flow cytometry, HepG2; format: cell-based, human; conditions: fluorescein-labeled compounds, flow cytometry, 2 hours
Experimental: as §1
The fluorescein-labeled NNPs or fluorescein-labeled N-acetylgalactosamine (GalNAc) recognizing ASGRPR were added to wells at indicated concentrations and incubated for 2 hours. Two plates were prepared for each treatment condition, one serving as 4 degrees C. no internalization control that was kept on ice during incubation, while the second plate was incubated at 37 degrees C. to allow for energy dependent internalization. Following the incubation period, all plates were placed on ice and washed three times with ice-cold PBS/3% BSA/2 mM EDTA and then lifted with trypsin. Cells were transferred to a 96-well round bottom plates in FACS buffer. Cells were then analyzed by flow cytometry using LSR-HJ with HTS sampler (BD Biosciences, San Jose, CA, USA). Data (mean fluorescence intensities) and further analyzed using Flowjo software (BD Biosciences, San Jose, CA, USA). The internalized fraction was expressed as the difference between the corresponding 4 degrees C. and 37 degrees C. MFIs as previously described.

Compound | Kd (IL-6R) [nM] | Stability in the presence of proteinase K (proteinase K) | Stability in human plasma [1] | Internalization (cell uptake) in HEK293 [2] | Kd (K-Ras) [nM] | Internalization (cell uptake) in HepG2 [3]
CC(C)C[C@H](NC(=O)[C@@H](CCCNC(=N)N)NC(=O)[C@@H](C)NC(=O)Cc1ccc(CNC(=O)[C@H](CC(C)C)NC(=O)[C@@H](CCCNC(=N)N)NC(=O)[C@@H](CCC(=O)O)NC(=O)Cc2ccc(CNC(=O)[C@H](C)NC(=O)[C@@H](CCCCN)NC(=O)[C@@H](Cc3ccc(O)cc3)NC(=O)Cc3ccc(CNC(=O)[C@H](C)NC(=O)[C@@H](CCCNC(=N)N)NC(=O)[C@@H](Cc4ccccc4)NC(=O)Cc4ccc(CNC(=O)[C@H](Cc5ccccc5)NC(=O)[C@@H](CO)NC(=O)[C@@H](CCCNC(=N)N)NC(=O)Cc5ccc(CNC(=O)[C@@H](NC(=O)[C@@H](CO)NC(=O)[C@@H](Cc6ccc(O)cc6)NC(=O)Cc6ccc(CNC(=O)[C@H](Cc7ccccc7)NC(=O)[C@H](NC(=O)[C@@H](CC(N)=O)NC(=O)c7ccc8c(c7)C(=O)OC87c8ccc(O)cc8Oc8cc(O)ccc87)C(C)C)cc6)C(C)C)cc5)cc4)cc3)cc2)cc1)C(=O)NCc1ccc(CC(=O)N2CCC[C@@H]2C(=O)N[C@H](CCCNC(=N)N)C(=O)N[C@@H](C)C(=O)NCc2ccc(CC(=O)N[C@H](Cc3ccccc3)C(=O)N[C@H](CCCCN)C(=O)NCC(=O)NCc3ccc(CC(N)=O)cc3)cc2)cc1 [IL6R-87-8, Fluorescein-(D)Asn-(D)Val-(L)Phe-PAM-(D)Tyr-(D)Ser-(L)Val-PAM-(D)Arg-(D)Ser-(L)Phe-PAM-(D)Phe-(D)Arg-(L)Ala-PAM-(D)Tyr-(D)Lys-(L)Ala-PAM-(D)Glu-(D)Arg-(L)Leu-PAM-(D)Ala-(D)Arg- (L)Leu-PAM-(D)Pro-(D)Arg-(L)Ala-PAM-(D)Phe-(D)Lys-Gly-PAM] (5FAM-[dN][dV]F[X1][dY][dS]V[X1][dR][dS]F[X1][dF][dR]A[X1][dY][dK]A[X1][dE][dR]L[X1][dA][dR]L[X1][dP][dR]A[X1][dF][dK]G-{NHCH2C6H4(4-CH2CONH2)}) | 0.62 | minimal degradation | stayed largely intact |  |  | 
CC(C)C[C@@H](NC(=O)[C@@H](CCC(=O)O)NC(=O)[C@@H](C)NC(=O)Cc1ccc(CNC(=O)[C@H](Cc2ccccc2)NC(=O)[C@@H](CCCNC(=N)N)NC(=O)[C@@H](Cc2ccc(O)cc2)NC(=O)[C@@H](CCCCN)NC(=O)[C@H]2CCCN2C(=O)Cc2ccc(CNC(=O)CNC(=O)[C@@H](CCCNC(=N)N)NC(=O)[C@@H](CCC(=O)O)NC(=O)[C@@H](CO)NC(=O)[C@H]3CCCN3C(=O)Cc3ccc(CNC(=O)[C@H](C)NC(=O)[C@@H](CCCNC(=N)N)NC(=O)[C@H]4CCCN4C(=O)[C@H](NC(=O)CNC(=O)Cc4ccc(CNC(=O)[C@H](Cc5ccccc5)NC(=O)[C@@H](CCC(=O)O)NC(=O)[C@@H](Cc5c[nH]cn5)NC(=O)[C@H]5CCCN5C(=O)[C@@H](CO)NC(=O)c5ccc6c(c5)C(=O)OC65c6ccc(O)cc6Oc6cc(O)ccc65)cc4)C(C)C)cc3)cc2)cc1)C(=O)N[C@H](CCCCN)C(=O)N[C@@H](C)C(=O)NCc1ccc(CC(=O)NCC(=O)N[C@H](Cc2c[nH]c3ccccc23)C(=O)N[C@H](Cc2c[nH]cn2)C(=O)N[C@H](CCCNC(=N)N)C(=O)N[C@@H](C)C(=O)NCc2ccc(CC(N)=O)cc2)cc1 [KRAS-1-14] (5FAM-[dS][dP][dH][dE]F[X1]G[dV][dP][dR]A[X1][dP][dS][dE][dR]G[X1][dP][dK][dY][dR]F[X1][dA][dE][dL][dK]A[X1]G[dW][dH][dR]A-{NHCH2C6H4(4-CH2CONH2)}) |  |  |  | minimal uptake | 155 | minimal uptake
